For one assay, the target named is MRCKA (CDC42BPA) (Homo sapiens, UniProt Q5VT25). Nature of the assay: in vitro radioisotope […] kinase assay, 10-dose. Format: biochemical.
Another assay addresses MRCKB (CDC42BPB) (Homo sapiens, UniProt Q9Y5S2). Nature of the assay: in vitro radioisotope […] kinase assay, 10-dose. Format: biochemical.

Chain of MRCKA (CDC42BPA) (Q5VT25 whole entry): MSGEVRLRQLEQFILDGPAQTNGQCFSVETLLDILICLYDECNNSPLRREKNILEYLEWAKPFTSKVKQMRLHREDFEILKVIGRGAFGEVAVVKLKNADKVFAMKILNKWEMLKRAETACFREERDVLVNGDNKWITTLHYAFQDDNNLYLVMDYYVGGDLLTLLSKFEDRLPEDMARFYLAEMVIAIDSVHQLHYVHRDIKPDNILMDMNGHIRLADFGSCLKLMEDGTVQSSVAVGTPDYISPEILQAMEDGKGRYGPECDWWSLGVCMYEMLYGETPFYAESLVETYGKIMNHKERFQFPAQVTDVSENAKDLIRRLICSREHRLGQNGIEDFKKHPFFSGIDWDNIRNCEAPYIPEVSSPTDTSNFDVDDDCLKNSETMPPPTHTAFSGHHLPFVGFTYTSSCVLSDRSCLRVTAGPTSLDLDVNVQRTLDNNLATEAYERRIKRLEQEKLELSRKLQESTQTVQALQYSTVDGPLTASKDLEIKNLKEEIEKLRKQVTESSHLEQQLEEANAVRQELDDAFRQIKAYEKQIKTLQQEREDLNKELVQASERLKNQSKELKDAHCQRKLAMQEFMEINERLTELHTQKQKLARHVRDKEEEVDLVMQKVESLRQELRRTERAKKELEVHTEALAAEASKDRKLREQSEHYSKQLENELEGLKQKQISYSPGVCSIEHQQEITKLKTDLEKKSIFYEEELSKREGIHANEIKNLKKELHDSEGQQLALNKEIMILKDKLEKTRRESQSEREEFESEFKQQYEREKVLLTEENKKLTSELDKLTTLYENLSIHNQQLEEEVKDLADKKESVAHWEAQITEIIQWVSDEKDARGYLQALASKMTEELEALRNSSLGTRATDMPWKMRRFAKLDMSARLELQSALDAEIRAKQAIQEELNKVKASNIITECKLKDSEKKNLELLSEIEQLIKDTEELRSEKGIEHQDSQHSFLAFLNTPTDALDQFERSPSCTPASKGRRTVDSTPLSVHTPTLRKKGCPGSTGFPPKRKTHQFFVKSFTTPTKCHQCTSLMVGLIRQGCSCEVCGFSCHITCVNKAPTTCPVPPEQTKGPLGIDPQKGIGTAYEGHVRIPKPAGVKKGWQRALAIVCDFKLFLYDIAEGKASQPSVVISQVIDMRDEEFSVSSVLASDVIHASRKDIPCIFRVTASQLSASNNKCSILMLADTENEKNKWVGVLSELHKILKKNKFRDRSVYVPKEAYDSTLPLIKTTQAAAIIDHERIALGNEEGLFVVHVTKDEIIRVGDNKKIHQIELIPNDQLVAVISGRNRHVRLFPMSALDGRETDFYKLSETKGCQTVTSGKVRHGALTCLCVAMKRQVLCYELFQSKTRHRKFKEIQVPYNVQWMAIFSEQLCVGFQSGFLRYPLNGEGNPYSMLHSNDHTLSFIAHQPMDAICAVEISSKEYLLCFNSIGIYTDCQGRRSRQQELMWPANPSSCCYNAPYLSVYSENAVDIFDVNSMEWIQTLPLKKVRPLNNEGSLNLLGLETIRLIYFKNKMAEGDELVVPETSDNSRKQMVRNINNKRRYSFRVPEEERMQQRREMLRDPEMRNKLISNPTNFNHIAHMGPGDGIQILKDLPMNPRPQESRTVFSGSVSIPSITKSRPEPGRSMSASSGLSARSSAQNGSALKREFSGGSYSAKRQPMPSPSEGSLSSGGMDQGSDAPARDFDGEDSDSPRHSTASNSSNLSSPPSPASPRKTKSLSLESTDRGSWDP
Chain of MRCKB (CDC42BPB) (Q9Y5S2 whole entry): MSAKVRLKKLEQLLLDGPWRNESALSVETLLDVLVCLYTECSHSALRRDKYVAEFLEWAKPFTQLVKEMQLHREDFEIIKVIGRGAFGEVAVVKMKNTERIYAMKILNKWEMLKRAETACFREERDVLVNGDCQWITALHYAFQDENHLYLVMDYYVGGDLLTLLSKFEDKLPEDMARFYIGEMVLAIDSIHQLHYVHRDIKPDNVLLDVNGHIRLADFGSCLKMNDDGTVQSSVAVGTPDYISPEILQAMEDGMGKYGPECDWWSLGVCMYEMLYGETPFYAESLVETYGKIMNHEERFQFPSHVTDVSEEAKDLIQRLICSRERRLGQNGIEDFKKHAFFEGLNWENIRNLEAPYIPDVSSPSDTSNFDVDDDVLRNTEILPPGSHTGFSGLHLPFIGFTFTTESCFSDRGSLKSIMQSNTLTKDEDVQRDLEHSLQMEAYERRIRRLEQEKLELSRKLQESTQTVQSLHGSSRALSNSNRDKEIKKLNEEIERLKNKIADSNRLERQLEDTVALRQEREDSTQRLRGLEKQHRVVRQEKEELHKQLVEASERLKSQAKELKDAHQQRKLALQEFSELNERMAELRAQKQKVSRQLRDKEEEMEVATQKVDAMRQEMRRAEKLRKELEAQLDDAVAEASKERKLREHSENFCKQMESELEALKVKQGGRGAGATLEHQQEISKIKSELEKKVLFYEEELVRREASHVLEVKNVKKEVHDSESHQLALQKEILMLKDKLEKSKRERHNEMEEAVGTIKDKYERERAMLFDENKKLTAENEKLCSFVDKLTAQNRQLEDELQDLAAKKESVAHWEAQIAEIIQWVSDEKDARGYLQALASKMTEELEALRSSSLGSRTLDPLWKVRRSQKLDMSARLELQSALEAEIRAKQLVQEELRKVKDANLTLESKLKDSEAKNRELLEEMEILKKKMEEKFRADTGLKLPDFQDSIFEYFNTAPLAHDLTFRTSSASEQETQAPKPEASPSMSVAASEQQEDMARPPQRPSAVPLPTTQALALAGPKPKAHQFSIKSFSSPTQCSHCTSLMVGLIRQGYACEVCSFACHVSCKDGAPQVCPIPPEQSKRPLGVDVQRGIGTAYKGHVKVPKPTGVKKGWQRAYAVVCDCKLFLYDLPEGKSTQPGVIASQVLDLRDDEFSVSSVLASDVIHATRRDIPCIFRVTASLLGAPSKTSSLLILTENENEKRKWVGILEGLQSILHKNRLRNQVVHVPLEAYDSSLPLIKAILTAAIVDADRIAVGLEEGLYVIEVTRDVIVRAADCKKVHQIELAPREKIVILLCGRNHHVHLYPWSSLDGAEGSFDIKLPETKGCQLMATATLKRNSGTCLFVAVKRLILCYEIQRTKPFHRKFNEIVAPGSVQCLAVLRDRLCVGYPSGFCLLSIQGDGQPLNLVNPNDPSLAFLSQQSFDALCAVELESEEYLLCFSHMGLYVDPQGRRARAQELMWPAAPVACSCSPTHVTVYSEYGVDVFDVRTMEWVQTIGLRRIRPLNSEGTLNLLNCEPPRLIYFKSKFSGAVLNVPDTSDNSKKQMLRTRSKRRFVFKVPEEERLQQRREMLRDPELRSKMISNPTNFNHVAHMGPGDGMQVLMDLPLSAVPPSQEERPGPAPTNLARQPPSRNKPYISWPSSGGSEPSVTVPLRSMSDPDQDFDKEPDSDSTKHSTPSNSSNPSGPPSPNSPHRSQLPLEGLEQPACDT

Turning to BDP9066, the EC50 stood at 0.065 µM on MRCKA (CDC42BPA) and 0.072 µM at MRCKB (CDC42BPB).
